This passage reports IC50 results from patent US10329270B2, “Heteroaryl compounds as BTK inhibitors and uses thereof” (Merck Patent GmbH, priority 2013, dated 2019).

Broadly, the IC50 is the midpoint of a concentration-inhibition curve.

This assay concerns the target T1, full-length human BTK (Homo sapiens, UniProt Q06187).
T1 construct: 2.5× stocks of full-length human BTK (08-080); purchased CarnaBio USA, Inc., Natick, Mass; 08-080
The assay is described as follows: Assay A: BTK IC50 Enzyme Assay (microfluidic off-chip mobility shift kinase assay). The class given is biochemical. Conditions: full-length human BTK, kinKDR peptide substrate, incubated 90 min at 27 C; read-out: Assay A (Time Dependent BTK Enzyme Assay IC50). In a few lines: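 Off-chip microfluidic mobility shift assay with full-length human BTK; phosphorylated and unphosphorylated peptide substrate were separated by charge/mass on a LabChip 3000.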

T1 sequence (Q06187 whole entry): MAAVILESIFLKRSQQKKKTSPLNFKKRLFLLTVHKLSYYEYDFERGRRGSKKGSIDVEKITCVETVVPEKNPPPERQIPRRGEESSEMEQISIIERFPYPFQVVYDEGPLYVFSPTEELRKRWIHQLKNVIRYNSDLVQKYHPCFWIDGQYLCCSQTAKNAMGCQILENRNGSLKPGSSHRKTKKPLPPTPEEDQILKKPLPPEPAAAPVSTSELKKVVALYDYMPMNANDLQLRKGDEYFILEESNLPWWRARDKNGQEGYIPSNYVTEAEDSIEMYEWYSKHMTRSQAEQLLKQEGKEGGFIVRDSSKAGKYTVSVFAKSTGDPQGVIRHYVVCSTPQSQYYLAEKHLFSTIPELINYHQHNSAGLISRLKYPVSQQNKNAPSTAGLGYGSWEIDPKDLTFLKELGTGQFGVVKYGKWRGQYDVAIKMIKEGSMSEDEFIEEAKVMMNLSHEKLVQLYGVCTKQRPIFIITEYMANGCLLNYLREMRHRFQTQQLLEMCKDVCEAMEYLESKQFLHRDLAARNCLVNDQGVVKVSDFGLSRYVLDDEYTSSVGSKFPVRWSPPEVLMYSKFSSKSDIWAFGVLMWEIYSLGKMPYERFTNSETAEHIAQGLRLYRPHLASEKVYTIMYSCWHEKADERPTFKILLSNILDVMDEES

As for `C=CC(=O)N1CCC(c2cnc(Oc3ccc(Oc4ccccc4)cc3)c(C(N)=O)c2)CC1` [Compound 127, 1′-Acryloyl-6-(4-phenoxy-phenoxy)-1′,2′,3′,4′,5′,6′-hexahydro-[3,4′]bipyridinyl-5-carboxylic acid amide], the IC50 lay within 100 to 1000 nM.

As to `C=CC(=O)N1CCn2ncc(-c3cnc(C(N)=O)c(NC(C)=O)c3)c2C1` [Compound 132], the IC50 is less than 100 nM.

As to `C=CC(=O)NC1CCC(c2cnc(C(N)=O)c(NC(C)=O)c2)CC1` (centres unmarked) [Compound 133], the IC50 fell in the range of 1000 to 5000 nM.

Take `C=CC(=O)N1C[C@@H]2C[C@H]1CN2c1cnc(C(N)=O)c(Oc2ccc(Oc3ccccc3)cc2)n1` [Compound 135, 5-((1S,4S)-5-Acryloyl-2,5-diaza-bicyclo[2.2.1]hept-2-yl)-3-(4-phenoxy-phenoxy)-pyrazine-2-carboxylic acid amide]: the IC50 lay in the range of 1000 to 5000 nM.

Take `C=CC(=O)N1[C@@H]2CC[C@H]1CC(c1cnc(C(N)=O)cn1)C2` (some centres unmarked) [Compound 136]: the half-maximal inhibitory concentration (IC50) lay within 1000 to 5000 nM.

For the compound `C=CC(=O)N1CCn2ncc(-c3cnc(C(N)=O)cn3)c2C1` [Compound 137], the IC50 was greater than 5000 nM.

Consider `CN(C)C/C=C/C(=O)N1CCC(Nc2ncc(C(N)=O)c(N)n2)C1` (centres unmarked) [Compound 138, 4-Amino-2-[1-((E)-4-dimethylamino-but-2-enoyl)-pyrrolidin-3-ylamino]-pyrimidine-5-carboxylic acid amide], for which the IC50 is greater than 5000 nM.

On to `C=CC(=O)N[C@H]1CCN(c2ncc(C(N)=O)c(Nc3ccc(C(=O)N4CCOCC4)cc3)n2)C1` [Compound 140, 2-((S)-3-Acryloylamino-pyrrolidin-1-yl)-4-[4-(morpholine-4-carbonyl)-phenylamino]-pyrimidine-5-carboxylic acid amide], for which the IC50 is less than 100 nM.

For `C=CC(=O)N1CCC(Nc2ncc(C(N)=O)c(N)n2)C1` (centres unmarked) [Compound 141, 2-(1-Acryloyl-pyrrolidin-3-ylamino)-4-amino-pyrimidine-5-carboxylic acid amide], the IC50 was 100 to 1000 nM.

On to `C=CC(=O)N[C@H]1CCN(c2ncc(C(N)=O)c(N)n2)C1` [Compound 142, 2-((S)-3-Acryloylamino-pyrrolidin-1-yl)-4-amino-pyrimidine-5-carboxylic acid amide], for which the IC50 lay in the range of 100 to 1000 nM.

As for `C=CC(=O)N[C@H]1C[C@@H](Nc2ncc(C(N)=O)c(N)n2)C1` [Compound 143, 2-(3-Acryloylamino-cyclobutylamino)-4-amino-pyrimidine-5-carboxylic acid amide], the IC50 fell in the range of 100 to 1000 nM.

For `C=CC(=O)N[C@@H]1CCN(c2ncc(C(N)=O)c(N)n2)C1` [Compound 144, 2-((R)-3-Acryloylamino-pyrrolidin-1-yl)-4-amino-pyrimidine-5-carboxylic acid amide], the IC50 lay in the range of 100 to 1000 nM.

As to `CN(C)C/C=C/C(=O)N[C@H]1CCN(c2ncc(C(N)=O)c(N)n2)C1` [Compound 145, 4-Amino-2-[(S)-3-((E)-4-dimethylamino-but-2-enoylamino)-pyrrolidin-1-yl]-pyrimidine-5-carboxylic acid amide], the half-inhibitory concentration (IC50) was 1000 to 5000 nM.

In the case of `CN(C)C/C=C/C(=O)N[C@@H]1CCN(c2ncc(C(N)=O)c(N)n2)C1` [Compound 146, 4-Amino-2-[(R)-3-((E)-4-dimethylamino-but-2-enoylamino)-pyrrolidin-1-yl]-pyrimidine-5-carboxylic acid amide], the IC50 was greater than 5000 nM.

On to `C=CC(=O)N1C[C@@H]2C[C@H]1CN2c1ncc(C(N)=O)c(Oc2ccc(Oc3ccccc3)cc2)n1` [Compound 147, 2-((1S,4S)-5-acryloyl-2,5-diazabicyclo[2.2.1]heptan-2-yl)-4-(4-phenoxyphenoxy)pyrimidine-5-carboxamide], for which the IC50 is less than 100 nM.

Turning to `C=CC(=O)N1CCC(c2ncc(C(N)=O)c(Oc3ccc(Oc4ccccc4)cc3)n2)CC1` [Compound 148, 2-(1-Acryloyl-piperidin-4-yl)-4-(4-phenoxy-phenoxy)-pyrimidine-5-carboxylic acid amide], the 50% inhibitory concentration (IC50) is less than 100 nM.

As to `C=CC(=O)N1C2CCC1CN(c1ncc(C(N)=O)c(Oc3ccc(Oc4ccccc4)cc3)n1)C2` [Compound 149, 2-(8-Acryloyl-3,8-diaza-bicyclo[3.2.1]oct-3-yl)-4-(4-phenoxy-phenoxy)-pyrimidine-5-carboxylic acid amide], the IC50 is less than 100 nM.

For the compound `C=CC(=O)N1CCC(c2ncc(C(N)=O)c(Oc3ccc(Oc4ccccc4)cc3)n2)C1` (centres unmarked) [Compound 150, 2-(1-Acryloyl-pyrrolidin-3-yl)-4-(4-phenoxy-phenoxy)-pyrimidine-5-carboxylic acid amide], the half-inhibitory concentration (IC50) fell in the range of 100 to 1000 nM.

On to `C=CC(=O)N1CCN(c2ncc(C(N)=O)c(Oc3ccc(Oc4ccccc4)cc3)n2)C(C)(C)C1` [Compound 151], for which the IC50 was 100 to 1000 nM.

As to `C=CC(=O)NCc1cccc(-c2cnc(C(N)=O)nc2)c1` [Compound 152], the IC50 lay in the range of 1000 to 5000 nM.

For the compound `C=CC(=O)N1CCC(c2cnc(C(N)=O)nc2)CC1` [Compound 153], the IC50 was greater than 5000 nM.

For the compound `C=CC(=O)N1CCn2ncc(-c3cnc(C(N)=O)nc3)c2C1` [Compound 154], the IC50 was greater than 5000 nM.

With `C=CC(=O)N1CCC(c2cnc(C(N)=O)nc2)C1` (centres unmarked) [Compound 155], the IC50 is greater than 5000 nM.

With `C=CC(=O)N[C@H]1CCN(c2nc(Nc3ccc(NC(=O)C(C)(C)C)cc3)ccc2C(N)=O)C1` [Compound 156, 2-((S)-3-Acryloylamino-pyrrolidin-1-yl)-6-[4-(2,2-dimethyl-propionylamino)-phenylamino]-nicotinamide], the IC50 was less than 100 nM.

Consider `C=CC(=O)N[C@H]1CCN(c2nc(Nc3ccc(F)c(C)c3)ccc2C(N)=O)C1` [Compound 157, 2-((S)-3-Acryloylamino-pyrrolidin-1-yl)-6-(4-fluoro-3-methyl-phenylamino)-nicotinamide], for which the IC50 is less than 100 nM.

For `C=CC(=O)N1CCN(c2nc(N(C)c3cccc(C)c3)ccc2C(N)=O)CC1` [Compound 158, 2-(4-Acryloyl-piperazin-1-yl)-6-(methyl-m-tolyl-amino)-nicotinamide], the IC50 was 100 to 1000 nM.

Regarding `C=CC(=O)Nc1ccc(-c2ccc(C(N)=O)c(Oc3ccc(Oc4ccccc4)cc3)n2)cc1` [Compound 159, 6-(4-acrylamidophenyl)-2-(4-phenoxyphenoxy)nicotinamide], the IC50 is greater than 5000 nM.

As to `C=CC(=O)NCc1ccc(-c2ccc(C(N)=O)c(Oc3ccc(Oc4ccccc4)cc3)n2)s1` [Compound 160, 6-(5-(acrylamidomethyl)thiophen-2-yl)-2-(4-phenoxyphenoxy)nicotinamide], the IC50 was greater than 5000 nM.

With `C=CC(=O)NCc1ccc(-c2ccc(C(N)=O)c(Oc3ccc(Oc4ccccc4)cc3)n2)o1` [Compound 161, 6-(5-(acrylamidomethyl)furan-2-yl)-2-(4-phenoxyphenoxy)nicotinamide], the IC50 is greater than 5000 nM.

Turning to `CN(C)C/C=C/C(=O)N[C@H]1C[C@@H](Nc2ncc(C(N)=O)c(N)n2)C1` [Compound 162, 4-Amino-2-[3-(4-dimethylamino-but-2-enoylamino)-cyclobutylamino]-pyrimidine-5-carboxylic acid amide], the IC50 was greater than 5000 nM.

For the compound `C=CC(=O)N[C@H]1CCN(c2nc(Cl)ccc2C(N)=O)C1` [Compound 163, 2-((S)-3-Acryloylamino-pyrrolidin-1-yl)-6-chloro-nicotinamide], the IC50 was greater than 5000 nM.

With `C=CC(=O)N[C@H]1CCN(c2ccc(C(N)=O)c(NC3CCOCC3)n2)C1` [Compound 165, 6-((S)-3-Acryloylamino-pyrrolidin-1-yl)-2-(tetrahydro-pyran-4-ylamino)-nicotinamide], the IC50 is greater than 5000 nM.

Consider `C=CC(=O)N[C@H]1CCN(c2ccc(C(N)=O)c(NCCN3CCOCC3)n2)C1` [Compound 166, 6-((S)-3-Acryloylamino-pyrrolidin-1-yl)-2-(2-morpholin-4-yl-ethylamino)-nicotinamide], for which the IC50 was greater than 5000 nM.

For `C/C=C/C(=O)N1CCC(c2cnc(Oc3ccc(Oc4cccc(F)c4)cc3)c(C(N)=O)c2)C1` (centres unmarked) [Compound 167, 5-[1-((E)-But-2-enoyl)-pyrrolidin-3-yl]-2-[4-(3-fluoro-phenoxy)-phenoxy]-nicotinamide], the IC50 lay in the range of 1000 to 5000 nM.

With `C=CC(=O)N1CC=C(c2cncc(C(N)=O)c2Nc2ccc(N3C[C@@H](C)O[C@@H](C)C3)nc2)CC1` [Compound 168, 1′-Acryloyl-4-[6-(cis-2,6-dimethyl-morpholin-4-yl)-pyridin-3-ylamino]-1′,2′,3′,6′-tetrahydro-[3,4′]bipyridinyl-5-carboxylic acid amide], the IC50 lay within 1000 to 5000 nM.

Consider `C=CC(=O)N1CC=C(c2cncc(C(N)=O)c2Nc2ccc(C(=O)N3CCCCC3)cc2)CC1` [Compound 169, 1′-Acryloyl-4-[4-(piperidine-1-carbonyl)-phenylamino]-1′,2′,3′,6′-tetrahydro-[3,4′]bipyridinyl-5-carboxylic acid amide], for which the IC50 lay within 1000 to 5000 nM.

In the case of `C=CC(=O)N[C@H]1CCN(c2ncc(C(N)=O)cc2-c2ccc(Oc3ccccc3)cc2)C1` [Compound 170, 6-((S)-3-Acryloylamino-pyrrolidin-1-yl)-5-(4-phenoxy-phenyl)-nicotinamide], the IC50 was greater than 5000 nM.

As for `C=CC(=O)N[C@H]1CCN(c2ncnc(C(N)=O)c2Cl)C1` [Compound 172, 6-((S)-3-Acryloylamino-pyrrolidin-1-yl)-5-chloro-pyrimidine-4-carboxylic acid amide], the IC50 is greater than 5000 nM.

Consider `C=CC(=O)N1CCC(Nc2ncc(C(N)=O)c(Oc3ccc(Oc4ccccc4)cc3)n2)CC12CCC2` (centres unmarked) [Compound 175, 2-(5-Acryloyl-5-aza-spiro[3.5]non-8-ylamino)-4-(4-phenoxy-phenoxy)-pyrimidine-5-carboxylic acid amide], for which the IC50 was in the range of 100 to 1000 nM.

For the compound `C=CC(=O)N[C@H]1C[C@H](Nc2ncc(C(N)=O)c(Oc3ccc(Oc4ccccc4)cc3)n2)C1` [Compound 176, 2-(((1r,3r)-3-acrylamidocyclobutyl)amino)-4-(4-phenoxyphenoxy)pyrimidine-5-carboxamide], the IC50 was 100 to 1000 nM.

With `C=CC(=O)N[C@H]1CCN(c2ncc(C#N)c(Nc3ccc(C(=O)NC(C)(C)C)cc3)n2)C1` [Compound 178], the IC50 was less than 100 nM.
